Source: US9174998B2, “(6S,9aS)-N-benzyl-6-[(4-hydroxyphenyl)methyl]-4,7-dioxo-8-({6-[3-(piperazin-1-yl)azetidin-1-yl]pyridin-2-yl}methyl)-2-(prop-2-en-1-yl)-octahydro-1H-pyrazino[2,1-c][1,2,4]triazine-1-carboxamide compound” (Eisai R&D Management Co., Ltd., priority 2013, dated 2015)
≈ marks a conversion by molar mass, not a printed value. Where two headings read alike, the source gives them in different places.

How the values were obtained:
[1] = Evaluation of metabolic stability; type: in vitro ADME, human; settings: 0.2 mg/mL HLM, 0.1 μM test substance, 15 minutes at 37° C., with vs without NADPH production
Protocol: A test substance was dissolved in DMSO so that the concentration of the resultant solution became 20 mM, and the solution was diluted with DMSO so that the concentration of the resultant solution became 1 mM. The metabolic stability of the test substance was evaluated using a human liver microsome (HLM) in which human liver was pooled. An assay buffer solution contained 0.2 mg/mL of HLM, a 0.1 M of phosphate potassium buffer solution (pH 7.4), 0.1 mM of EDTA, 0.33 mM of NADP+, 8 mM of glucose-6-phosphate, 0.1 U/mL of glucose-6-phosphate dehydrogenase, 6 mM of MgCl2, 0.1 μM of a test substance (final concentration in DMSO: 0.01%) in 0.15 mL of the final incubation volume. Fifteen minutes after the initiation of the reaction at 37° C., 0.15 mL of a acetonitrile/methanol mixed solution (7:3, by volume) was added to the solution to terminate the reaction. After centrifugation, the resultant supernatant was analyzed by LC-MSMS, peak areas were compared under the presence or absence of the production of NADPH, and the residual ratio of the test substance was calculated.

[2] = PAMPA test (parallel artificial membrane permeability assay); type: in vitro ADME; settings: phosphate buffer pH 6.8, about 200 μM, about 5 hours, room temperature, read-out: Test Example 4 membrane permeation coefficient Pe
Protocol: A test solution (see below) was stirred while shaking at room temperature for about 5 hours using a 96-well PAMPA plate (BD Biosciences) in which a lipid had been precoated onto a polyvinylidene fluoride (PVDF) film to evaluate the membrane permeation coefficient Pe (cm/s) of each compound dissolved in the test solution (concentration: about 200 μM) upon the transport of the compound from a donor side to an acceptor side through a lipid membrane. The Pe value was calculated in accordance with equations 1 and 2, and the concentration of the compound on the donor side and the acceptor side was measured by a HPLC-UV method. In 0.3 mL of the test solution on the donor side is contained about 1% (v/v) of DMSO, since 3 μL of a DMSO solution containing the compound at a concentration of 20 mM was added to the test solution.
Test solution: a phosphate buffer solution having a pH value of 6.8 (90 mM of phosphate, 48 mM of NaCl, 5.4 mM of KCl)
Conditions for stirring: a multishaker MS-300 (AS ONE Corporation), 350 rpm
[formula] CD(t): compound concentration in donor well at time t CA(t): compound concentration in acceptor well at time t VD: donor well volume (0.3 mL) VA: acceptor well volume (0.2 mL) A: filter area (0.3 cm^2)

[3] = tested on: Wnt signal; assay: Detection of Wnt signal (TOPglow luciferase reporter, LiCl-stimulated); type: cell-based; settings: Homo sapiens; HEK293 clone carrying pNeo-TOP reporter; LiCl stimulation; luciferase luminescence; read-out: Test Example 1 IC50 (concentration required for inhibiting the Wnt signal activity by 50%)
Protocol: pcDNA3.1(+) (invitrogen) was cleaved with restriction enzymes BglII and NotI, and an adapter BEHKS having a sequence shown below (containing restriction enzyme sites BglII, EcoRI, HindIII, KpnI, SacI and NotI) was inserted thereinto, thereby producing a plasmid pNeo-HKS.
Subsequently, a fragment having a length of about 2700 bp (containing a Wnt-responsive sequence and a luciferase gene), which was prepared by cleaving from a TOPglow plasmid contained in a TOPglow/FOPglow TCF Reporter Kit (upstate Catalog#17-366) with restriction enzymes HindIII and KpnI, was inserted between HindIII and KpnI in pNeo-HKS, thereby producing a plasmid pNeo-TOP. The plasmid pNeo-TOP was introduced into human fetus-derived renal cell strain HEK293, then a compound was selected using G418, and then a cell clone strain was established by a limiting dilution method. The cell clone strain was subjected to a Wnt signal detection test.
The cell clone strain was subcultured in a D-MEM glucose-rich culture medium (Wako Pure Chemical Industries, Ltd.) containing 10% FBS, and cells in a growth phase were used in the test. Cells were collected using trypsin-EDTA, the number of the cells was counted, and then the cells were suspended in a D-MEM glucose-rich culture medium containing 10% FBS so that the number of cells became 2×10^5 cells/mL. The cell suspension was added to a 96-well cell culture plate (Greiner Bio-One Co., Ltd., product number: 655083) in an amount of 0.1 mL/well and then cultured overnight in a 5% CO2 incubator (37° C.). After the culturing, a substance to be tested, which was dissolved in DMSO, was diluted with a D-MEM glucose-rich culture medium containing 10% of FBS and 80 mM of LiCl to produce a sample solution. The sample solution (0.1 mL) was added to each well and then cultured in a 5% CO2 incubator (37° C.) […]. Six hours after the addition of the sample solution, a supernatant was removed from each well, and then 50 μL of Bright-Glo™ Luciferase substrate (Promega, product number: E2620) was added thereto. The plate was put on a plate mixer for several seconds, and then the emission of light from each well was measured using a EnVision™ Multilabel plate reader (PerkinElmer Co., Ltd.). The Wnt signal activation rate (%) of each well was determined, and a concentration (IC50) which is required for inhibiting the Wnt signal activity of a substance of interest by 50% was calculated, wherein the luminosity of a well to which a sample solution was not added and LiCl was added was defined as a 100% Wnt signal activity and the luminosity of a well to which either of a sample solution or LiCl was not added was defined as a 0% Wnt signal activity.

[4] = Evaluation of solubility (DMSO stock into PBS, HPLC-UV); type: physicochemical; settings: Dulbecco's phosphate-buffered saline pH 7, room temperature, about 15 minutes shaking, values greater than 200 μM regarded as 200 μM, read-out: Test Example 3 solubility
Protocol: To 0.25 mL of a test solution a mentioned below was added 2.5 μL of a DMSO solution having a compound concentration of 20 mM. The resultant solution was shaken at room temperature for about 15 minutes (the conditions for the shaking are mentioned below). Subsequently, a supernatant was collected by a suction filtration under a reduced pressure. A DMSO solution having a compound concentration of 200 μM was used as a standard solution, and the concentration of a compound in a filtrate which was quantified by a HPLC-UV method was employed as a solubility (rounded off to the whole number). In this evaluation, since a value 200 μM became the upper limit operationally, all of quantification values greater than 200 μM were regarded as 200 μM.
Test solution: GIBCO (registered trade name) Dulbecco's phosphate-buffered saline (pH 7, Life Technologies Corporation)
Conditions for shaking: a microplate shaker N-704 (Nissinrika Corporation), speed 6

[5] = aqueous buffer, kinetic from dmso stock

## C=CCN1CC(=O)N2[C@@H](Cc3c(F)cc(O)cc3F)C(=O)N(Cc3cccc(N4CC(N5CCN(C)C[C@@H]5C)C4)n3)C[C@@H]2N1C(=O)NCc1ccccc1 [Example 17, (6S,9aS)-N-Benzyl-6-((2,6-difluoro-4-hydroxyphenyl)methyl)-8-((6-(3-((2S)-2,4-dimethylpiperazin-1-yl)azetidin-1-yl)pyridin-2-yl)methyl)-4,7-dioxo-2-(prop-2-en-1-yl)-octahydro-1H-pyrazino[2,1-c][1,2,4]triazine-1-carboxamide]
[1]
  Test Example 2 residual ratio of the test substance: 60%
[2]
  Papp: 0.89 ×10⁻⁶ cm/s
[3]
  IC50: 210 nM
[4]; [5]
  solubility: 195 µM (≈ 145 µg/mL)

## C=CCN1CC(=O)N2[C@@H](Cc3ccc(O)cc3)C(=O)N(Cc3cccc(N4CC(N5CCN(CC)[C@@H](C)C5)C4)n3)C[C@@H]2N1C(=O)NCc1ccccc1 [Example 18, (6S,9aS)-N-Benzyl-8-((6-(3-((3S)-4-ethyl-3-methylpiperazin-1-yl)azetidin-1-yl)pyridin-2-yl)methyl)-6-((4-hydroxyphenyl)methyl)-4,7-dioxo-2-(prop-2-en-1-yl)-octahydro-1H-pyrazino[2,1-c][1,2,4]triazine-1-carboxamide]
[1]
  Test Example 2 residual ratio of the test substance: 37%
[2]
  Papp: 1.13 ×10⁻⁶ cm/s
[3]
  IC50: 320 nM
[4]
  solubility: 200 µM (≈ 144 µg/mL)

## C=CCN1CC(=O)N2C(CN(Cc3cccc(N4CC(N5CCN(CC)[C@H](C)C5)C4)n3)C(=O)[C@@H]2Cc2ccc(O)cc2)N1C(=O)NCc1ccccc1 (stereo partly drawn) [Example 19, (6S,9aS)-N-Benzyl-8-((6-3-((3R)-4-ethyl-3-methylpiperazin-1-yl)azetidin-1-yl)pyridin-2-yl)methyl-6-((4-hydroxyphenyl)methyl)-4,7-dioxo-2-(prop-2-en-1-yl)-octahydro-1H-pyrazino[2,1-c][1,2,4]triazine-1-carboxamide]
[1]
  Test Example 2 residual ratio of the test substance: 30%
[2]
  Papp: 0.91 ×10⁻⁶ cm/s
[3]
  IC50: 230 nM
[4]
  solubility: 200 µM (≈ 144 µg/mL)

## C=CCN1CC(=O)N2[C@@H](Cc3ccc(O)cc3F)C(=O)N(Cc3cccc(N4CC(N5CCN(CC)[C@@H](C)C5)C4)n3)C[C@@H]2N1C(=O)NCc1ccccc1 [Example 20, (6S,9aS)-N-Benzyl-8-((6-(3-((3S)-4-ethyl-3-methylpiperazin-1-yl)azetidin-1-yl)pyridin-2-yl)methyl)-6-((2-fluoro-4-hydroxyphenyl)methyl)-4,7-dioxo-2-(prop-2-en-1-yl)-octahydro-1H-pyrazino[2,1-c][1,2,4]triazine-1-carboxamide]
[1]
  Test Example 2 residual ratio of the test substance: 23%
[2]
  Papp: 2.17 ×10⁻⁶ cm/s
[3]
  IC50: 61 nM
[4]; [5]
  solubility: 197 µM (≈ 146 µg/mL)

## C=CCN1CC(=O)N2[C@@H](Cc3ccc(O)cc3F)C(=O)N(Cc3cccc(N4CC(N5CCN(CC)[C@H](C)C5)C4)n3)C[C@@H]2N1C(=O)NCc1ccccc1 [Example 21, (6S,9aS)-N-Benzyl-8-((6-(3-((3R)-4-ethyl-3-methylpiperazin-1-yl)azetidin-1-yl)pyridin-2-yl)methyl)-6-((2-fluoro-4-hydroxyphenyl)methyl)-4,7-dioxo-2-(prop-2-en-1-yl)-octahydro-1H-pyrazino[2,1-c][1,2,4]triazine-1-carboxamide]
[1]
  Test Example 2 residual ratio of the test substance: 23%
[2]
  Papp: 1.47 ×10⁻⁶ cm/s
[3]
  IC50: 63 nM
[4]
  solubility: 200 µM (≈ 148 µg/mL)

## C=CCN1CC(=O)N2[C@@H](Cc3c(F)cc(O)cc3F)C(=O)N(Cc3cccc(N4CC(N5CCN(CC)[C@@H](C)C5)C4)n3)C[C@@H]2N1C(=O)NCc1ccccc1 [Example 22, (6S,9aS)-N-Benzyl-6-((2,6-difluoro-4-hydroxyphenyl)methyl)-8-((6-(3-((3S)-4-ethyl-3-methylpiperazin-1-yl)azetidin-1-yl)pyridin-2-yl)methyl)-4,7-dioxo-2-(prop-2-en-1-yl)-octahydro-1H-pyrazino[2,1-c][1,2,4]triazine-1-carboxamide]
[1]
  Test Example 2 residual ratio of the test substance: 43%
[2]
  Papp: 0.57 ×10⁻⁶ cm/s
[3]
  IC50: 180 nM
[4]
  solubility: 200 µM (≈ 152 µg/mL)

## C=CCN1CC(=O)N2[C@@H](Cc3c(F)cc(O)cc3F)C(=O)N(Cc3cccc(N4CC(N5CCN(CC)[C@H](C)C5)C4)n3)C[C@@H]2N1C(=O)NCc1ccccc1 [Example 23, (6S,9aS)-N-Benzyl-6-((2,6-difluoro-4-hydroxyphenyl)methyl)-8-((6-(3-((3R)-4-ethyl-3-methylpiperazin-1-yl)azetidin-1-yl)pyridin-2-yl)methyl)-4,7-dioxo-2-(prop-2-en-1-yl)-octahydro-1H-pyrazino[2,1-c][1,2,4]triazine-1-carboxamide]
[1]
  Test Example 2 residual ratio of the test substance: 38%
[2]
  Papp: 0.43 ×10⁻⁶ cm/s
[3]
  IC50: 190 nM
[4]; [5]
  solubility: 195 µM (≈ 148 µg/mL)

## C=CCN1CC(=O)N2[C@@H](Cc3ccc(O)cc3)C(=O)N(Cc3ccc(F)c(N4CC(N5CCN(C)[C@H](C)C5)C4)n3)C[C@@H]2N1C(=O)NCc1ccccc1 [Example 24, (6S,9aS)-N-Benzyl-8-((6-(3-((3R)-3,4-dimethylpiperazin-1-yl)azetidine-1-yl)-5-fluoropyridin-2-yl)methyl)-6-((4-hydroxyphenyl)methyl)-4,7-dioxo-2-(prop-2-en-1-yl)-octahydro-1H-pyrazino[2,1-c][1,2,4]triazine-1-carboxamide]
[1]
  Test Example 2 residual ratio of the test substance: 26%
[2]
  Papp: 1.91 ×10⁻⁶ cm/s
[3]
  IC50: 77 nM
[4]
  solubility: 200 µM (≈ 145 µg/mL)
